# The supplement of paper PMC10307832
# Legend:
# Assay in all cases: relative viability (nuclei count vs DMSO), 5 days (fraction); higher = more cells survive
# HCC-15 = tested on: HCC-15
# In short: (§1)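 Relative viability is defined as nuclei in treated wells over nuclei in vehicle wells. Duplicate plates were run and medians reported. Lung cancer cell lines in 1536-well plates were dosed by pin tool one day after seeding, with one drug or with a fixed anchor-drug dose plus five library-drug doses (not always all listed) in √10 steps, and nuclei were counted after 5 days.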
# BEN = tested on: BEN
# In short: as §1
# NCI-H1915 = tested on: NCI-H1915
# In short: as §1
# NCI-H441 = tested on: NCI-H441
# In short: as §1
# LC-2-ad = tested on: LC-2-ad
# In short: as §1
# NCI-H647 = tested on: NCI-H647
# In short: as §1
# NCI-H838 = tested on: NCI-H838
# In short: as §1
# LXF-289 = tested on: LXF-289
# In short: as §1
# UMC-11 = tested on: UMC-11
# In short: as §1
# CAL-12T = tested on: CAL-12T
# In short: as §1
# HCC-366 = tested on: HCC-366
# In short: as §1
# HARA = tested on: HARA
# In short: as §1
# NCI-H661 = tested on: NCI-H661
# In short: as §1
# LOU-NH91 = tested on: LOU-NH91
# In short: as §1
# NCI-H322M = tested on: NCI-H322M
# In short: as §1
# NCI-H650 = tested on: NCI-H650
# In short: as §1
# SK-MES-1 = tested on: SK-MES-1
# In short: as §1
# NCI-H1651 = tested on: NCI-H1651
# In short: as §1
# NCI-H2085 = tested on: NCI-H2085
# In short: as §1
# NCI-H2170 = tested on: NCI-H2170
# In short: as §1
# NCI-H2347 = tested on: NCI-H2347
# In short: as §1
# H3255 = tested on: H3255
# In short: as §1
compound,measurement,setting,value
Nc1cccc2c1CN(C1CCC(=O)NC1=O)C2=O (stereo unspecified) [Lenalidomide] + C[C@@H](Oc1cc(-c2cnn(C3CCNCC3)c2)cnc1N)c1c(Cl)ccc(F)c1Cl [Crizotinib] (partner 1 µM),relative viability,HCC-15; first compound 0.253 µM,0.809
same,relative viability,HCC-15; first compound 2.53 µM,1.03
same,relative viability,HCC-15; first compound 8 µM,0.799
same,relative viability,BEN; first compound 0.253 µM,1.04
same,relative viability,BEN; first compound 0.8 µM,0.642
same,relative viability,BEN; first compound 2.53 µM,1.07
same,relative viability,BEN; first compound 8 µM,0.85
same,relative viability,NCI-H1915; first compound 0.253 µM,0.906
same,relative viability,NCI-H1915; first compound 0.8 µM,0.88
same,relative viability,NCI-H1915; first compound 2.53 µM,0.978
same,relative viability,NCI-H1915; first compound 8 µM,0.952
same,relative viability,NCI-H441; first compound 0.253 µM,0.612
same,relative viability,NCI-H441; first compound 0.8 µM,0.693
same,relative viability,NCI-H441; first compound 2.53 µM,0.726
same,relative viability,NCI-H441; first compound 8 µM,0.778
same,relative viability,LC-2-ad; first compound 0.253 µM,0.516
same,relative viability,LC-2-ad; first compound 0.8 µM,0.43
same,relative viability,LC-2-ad; first compound 2.53 µM,0.547
same,relative viability,LC-2-ad; first compound 8 µM,0.511
same,relative viability,NCI-H647; first compound 0.253 µM,1.08
same,relative viability,NCI-H647; first compound 0.8 µM,1.04
same,relative viability,NCI-H647; first compound 2.53 µM,1.22
same,relative viability,NCI-H647; first compound 8 µM,1.14
same,relative viability,NCI-H838; first compound 0.253 µM,0.847
same,relative viability,NCI-H838; first compound 0.8 µM,0.954
same,relative viability,NCI-H838; first compound 2.53 µM,0.914
same,relative viability,NCI-H838; first compound 8 µM,0.913
same,relative viability,LXF-289; first compound 0.253 µM,0.831
same,relative viability,LXF-289; first compound 0.8 µM,0.836
same,relative viability,LXF-289; first compound 2.53 µM,0.919
same,relative viability,LXF-289; first compound 8 µM,0.983
same,relative viability,UMC-11; first compound 0.253 µM,0.61
same,relative viability,UMC-11; first compound 0.8 µM,0.573
same,relative viability,UMC-11; first compound 2.53 µM,0.601
same,relative viability,UMC-11; first compound 8 µM,0.644
same,relative viability,CAL-12T; first compound 0.253 µM,0.617
same,relative viability,CAL-12T; first compound 0.8 µM,0.587
same,relative viability,CAL-12T; first compound 2.53 µM,0.692
same,relative viability,CAL-12T; first compound 8 µM,0.857
same,relative viability,HCC-366; first compound 0.253 µM,0.56
same,relative viability,HCC-366; first compound 0.8 µM,0.499
same,relative viability,HCC-366; first compound 2.53 µM,0.465
same,relative viability,HCC-366; first compound 8 µM,0.499
same,relative viability,HARA; first compound 0.253 µM,1.02
same,relative viability,HARA; first compound 0.8 µM,1.05
same,relative viability,HARA; first compound 2.53 µM,1.2
same,relative viability,HARA; first compound 8 µM,1.13
same,relative viability,NCI-H661; first compound 0.253 µM,0.972
same,relative viability,NCI-H661; first compound 0.8 µM,0.898
same,relative viability,NCI-H661; first compound 2.53 µM,0.905
same,relative viability,NCI-H661; first compound 8 µM,0.973
same,relative viability,LOU-NH91; first compound 0.253 µM,0.73
same,relative viability,LOU-NH91; first compound 0.8 µM,0.732
same,relative viability,LOU-NH91; first compound 2.53 µM,0.714
same,relative viability,LOU-NH91; first compound 8 µM,0.704
same,relative viability,NCI-H322M; first compound 0.253 µM,0.911
same,relative viability,NCI-H322M; first compound 0.8 µM,0.9
same,relative viability,NCI-H322M; first compound 2.53 µM,0.914
same,relative viability,NCI-H322M; first compound 8 µM,0.996
same,relative viability,NCI-H650; first compound 0.253 µM,0.755
same,relative viability,NCI-H650; first compound 2.53 µM,0.863
same,relative viability,NCI-H650; first compound 8 µM,0.809
same,relative viability,SK-MES-1; first compound 0.253 µM,1
same,relative viability,SK-MES-1; first compound 0.8 µM,1.04
same,relative viability,SK-MES-1; first compound 2.53 µM,0.972
same,relative viability,SK-MES-1; first compound 8 µM,0.974
same,relative viability,NCI-H1651; first compound 0.253 µM,0.875
same,relative viability,NCI-H1651; first compound 0.8 µM,0.884
same,relative viability,NCI-H1651; first compound 2.53 µM,0.865
same,relative viability,NCI-H1651; first compound 8 µM,0.861
same,relative viability,NCI-H2085; first compound 0.253 µM,0.866
same,relative viability,NCI-H2085; first compound 0.8 µM,0.742
same,relative viability,NCI-H2085; first compound 2.53 µM,0.97
same,relative viability,NCI-H2085; first compound 8 µM,0.926
same,relative viability,NCI-H2170; first compound 0.253 µM,1.21
same,relative viability,NCI-H2170; first compound 0.8 µM,1.14
same,relative viability,NCI-H2170; first compound 2.53 µM,1.17
same,relative viability,NCI-H2170; first compound 8 µM,1.14
same,relative viability,NCI-H2347; first compound 0.253 µM,0.779
same,relative viability,NCI-H2347; first compound 0.8 µM,0.674
same,relative viability,NCI-H2347; first compound 2.53 µM,0.83
same,relative viability,NCI-H2347; first compound 8 µM,0.573
same,relative viability,H3255; first compound 0.253 µM,0.79
same,relative viability,H3255; first compound 0.8 µM,0.885
same,relative viability,H3255; first compound 2.53 µM,0.872
same,relative viability,H3255; first compound 8 µM,0.946
